According to US20160195530A1, “METHOD FOR ANALYSIS OF NKT CELL FUNCTION” (RIKEN, priority 2005, published 2016):

Tests used:
[1] = tested on: NKT cell line; experiment: Antigen-specific growth of NKT cell line cocultivated with heterologous DCs; format: cell-based, human; settings: heterologous DCs in presence of antigen, 10 days, serially diluted NKT cell line mixed with NKT cell-removed PBMCs
Protocol: Mature DCs were stimulated for maturation, as well as pulsed using α-GalCer (100 ng/ml) for 48 hr in the 5th-7th days of the cultivation. 1×10^4 DCs pulsed with α-GalCer were added to the each well of 1×10^5 Mφ-depleted PBMCs in the presence of recombinant IL-2 (100 U/ml). 10-14 Days later, Va24^+ NKT cells were stained with FITC-labeled anti-Vα24 mAb, and selected using anti-FITC magnetic beads. Va24^+ NKT cells were maintained as a cell line in CM in the presence of 100 U/ml IL-2, and restimulated by PBMCs that had been irradiated in the presence of α-GalCer.
After serial dilution of the NKT cell line that was prepared by the method described in Example 4, the diluted solutions were mixed with NKT cell-removed PBMCs, cocultivated with heterologous DCs in the presence of an antigen (α-GalCel), and the growth rates were calculated 10 days later.

[2] = tested on: NKT cell contained in peripheral blood of a healthy subject; experiment: Cocultivation of Mφ-depleted PBMC with α-GalCer-pulsed mature mouse DC, flow cytometry and intracellular staining; format: cell-based, human; settings: healthy subjects; α-GalCer-pulsed mature mouse DCs, IL-2 100 U/ml, 9 days
Protocol: At first, mouse DCs were induced from mouse bone marrow cells. Mouse bone marrow cells were cultivated in 5% FCS-containing RPMI-1640 in the presence of mouse GM-CSF under 5% CO2 at 37° C. for 5 days.
Subsequently, immature mouse DCs were maturated. To the culture obtained as mentioned above (containing immature mouse DCs), α-GalCer (100 ng/ml) was added at the 6th day, and the culture was cultivated for 40 hr. For an acieration of the maturation, 100 ng/ml LPS was added at the 7th day, and the culture was cultivated for 16 hr. Thus obtained α-GalCer-pulsed mature mouse DCs were recovered at the 8th day.
PBMCs were obtained by blood drawing from healthy subjects, and Mφ-depleted PBMCs were obtained by removing macrophages (Mφ) using an anti-CD14 antibody (simultaneously using a CD11c antibody as necessary) and magnetic beads.
α-GalCer-pulsed mature mouse DCs (5×10^4 cells/ml) obtained by the above-mentioned (1) and Mφ-depleted PBMCs (5×10^5 cells/ml) obtained by the above-mentioned (2) were cultivated in 10% FCS-containing RPMI-1640 in the presence of recombinant human IL-2 (100 U/ml) under 5% CO2 at 37° C. for 9 days.
After cultivation in accordance with the protocol of the above-mentioned (1)-(3), the number of NKT cells and the frequency of NKT cells having an cytokine production ability were measured by flow cytometry and intracellular staining. […]

[3] = tested on: human NKT cells; experiment: IFN-γ ELISA after cocultivation of isolated human NKT cells with α-GalCer-pulsed autologous or heterologous DCs; format: cell-based; settings: α-GalCer-pulsed heterologous (mouse) DCs versus autologous DCs
Protocol: In order to clarify that a human NKT cell can be specifically activated by a heterologous DC, human NKT cells were isolated, cocultivated with α-GalCer-pulsed autologous or heterologous DCs, after which the culture supernatants were collected, and cytokine production was measured by the ELISA method.
After growth of the NKT cell with α-GalCer and IL-2, the cells were sorted using FACS Vantage with anti-invariant NKT antibodies, and cocultivated with α-GalCer-pulsed heterologous or autologous DCs, after which IFN-γ was quantified by the ELISA method.

[4] = tested on: NKT cells in peripheral blood; experiment: ELISPOT assay of IFN-γ-producing cells with α-GalCer-loaded mature DCs (autologous, allogeneic, heterologous); format: cell-based, human; settings: α-GalCer 100 ng/ml
Source text: In order to study whether activation of NKT cells in peripheral blood varies by DCs of different derivation, NKT cell activation in an autologous, allogeneic or heterologous system was studied by an ELISPOT assay with IFN-γ productivity as an index.
Human DCs were obtained by purifying CD14% monocytes with magnetic beads (Miltenyi Biotec Inc. Auburn, Calif.) and cultivating them for 7 days in the presence of 500 U/ml recombinant human IL-4 and 1,000 U/ml recombinant human GM-CSF. α-GalCer (100 ng/ml) or the same amount of vehicle (DMSO, Sigma) was loaded onto DCs at the 5th day, given maturation stimuli (10 ng/ml IL-1β, 10 ng/ml TNFα, and 1 μg/ml PGE2) at the 6th day, and recovered at the 7th day.
Bone marrow precursor cells were grown into DCs induced from mouse bone marrow in 5% FCS-containing RPMI-1640 using mouse GM-CSF. At the 6th day, α-GalCer (100 ng/ml) was added to immature bone marrow DCs, and cultivation was performed for 40 hr. For maturation of DCs, 100 ng/ml LPS was added at the 7th day, and cultivation was performed for 16 hr. Matured α-GalCer-pulsed DCs were recovered at the 8th day.
For detection of IFN-γ-secreting cells, 96-well filtration plates (Millipore, Bedford, Mass.) were coated with mouse anti-human IFN-γ (10 μg/ml, Mabtech, Sweden). PBMCs (1×10^6) were incubated in RPMI containing 5% human AB serum or 10% calf serum (complete medium or CM; GIBCO) in either presence or absence of α-GalCer (100 ng/ml). PMA (10 μg/ml) and ionomycin were used as positive controls. […] Spot-forming cells (SFC) were quantified with a microscope. When the reactivity was not less than 10 SFC/well and not less than twice the background (without αGalCer), the assay was scored as positive. In order to compare naive NKT cell activation ability of different APCs (autologous, allogeneic and heterologous DC) in cultures, Mφ-depleted cells (1×10^6/well) were cultivated with […] α-GalCer or vehicle-loaded APCs (1×10^5/well) in CM for 16 hr. α-GalCer-dependent IFN-γ-producing cells were measured by an ELISPOT assay.

Structure (SMILES): CCCCCCCCCCCCCCCCCCCCCCCCCC(=O)N[C@@H](CO[C@H]1O[C@H](CO)[C@H](O)[C@H](O)[C@H]1O)[C@H](O)[C@H](O)CCCCCCCCCCCCCC [α-GalCer, 25,35,4R-1-0(α-galactopyranosyl)-2(N-hexacosanoylamino)-1,3,4-octadecanetriol]
- antigen-specific growth of human NKT cells [1]: antigen-specifically grown by heterologous DCs
- cytokine production (frequency of NKT cells having cytokine production ability, IFN-γ) [2]: confirmed
- α-GalCer-dependent growth of human NKT cells (number of NKT cells) [2]: confirmed
- IFN-γ production (ELISA, culture supernatant) [3]: IFN-γ production was confirmed in the heterologous system, though it was lower than in the autologous system
- α-GalCer-dependent NKT cell activation (IFN-γ productivity, ELISPOT) ([4]; high frequency NKT cell-containing group (% NKT>0.05%), autologous and heterologous DCs): activation of NKT cell was confirmed
- α-GalCer-dependent NKT cell activation (IFN-γ productivity, ELISPOT) ([4]; low frequency NKT cell-containing group (% NKT<0.01%)): NKT cell activation was not confirmed
- α-GalCer-dependent NKT cell activation (IFN-γ productivity, ELISPOT) ([4]; middle frequency NKT cell-containing group (0.01%<% NKT<0.05%)): activation of NKT cell was confirmed in an α-GalCer dependent manner, but the production amount was found to be decreased
